We go through one molecule from PMC9051106, “Structural insights into TRPV2 activation by small molecules” (Nature Communications, 2022).

One assay concerns the target Arg535Lys rat TRPV2 (Rattus norvegicus, UniProt Q9WUD2, R535K). Here is the method:
(§1) Nanofectin (PAA, Pasching, Austria) was used to transfect HEK293T cells with WT rat TRPV2, Arg535Lys rat TRPV2, Arg539Lys rat TRPV2, His521Ala rat TRPV2, His521Asn rat TRPV2, His521Ala/Arg539Lys rat TRPV2, Thr522Ala rat TRPV2 and Tyr525Ala rat TRPV2. Mutants were generated according to the instructions of the manufacturer by site directed mutagenesis with the quick-change lightning site-directed mutagenesis kit (Aglient, Waldbronn, Germany). […] Cells were cultured at 37 °C with 5% CO2 in Dulbecco’s modified Eagle medium nutrient mixture F12 (DMEM/F12 Gibco/Invitrogen, Darmstadt, Germany) and supplemented with 10% fetal bovine serum, (Biochrom, Berlin, Germany).
(§2) Whole-cell voltage clamp was performed with an EPC10 USB HEKA amplifier (HEKA Electronik, Lamprecht, Germany), much as previously described. Signals were low passed at 1 kHz and sampled at 2–10 kHz. Patch pipettes were pulled from borosilicate glass tubes (TW150F-3; World Precision Instruments, Berlin, Germany) to give a resistance of about 3 MΩ. Cells were held at −60 mV and all recordings were performed at room temperature. The external solution contained: 140 mM NaCl, 5 mM KCl, 2 mM MgCl2, 5 mM EGTA, 10 mM glucose, and 10 mM HEPES, pH 7.4 (adjusted with NaOH). Calcium was omitted in order to avoid desensitization. The standard pipette solution contained: 140 mM KCl, 2 mM MgCl2, 5 mM EGTA and 10 mM HEPES, pH 7.4 (adjusted with KOH). A gravity-driven glass multi-barrel perfusion system was used to bath apply solutions. Data acquisition and off-line analyses required Patchmaster/Fitmaster software (HEKA Electronik, Lamprecht, Germany) and Origin 8.5.1 (Origin Lab, Northampton, MA, USA).

The target of another assay is Arg539Lys rat TRPV2 (Rattus norvegicus, UniProt Q9WUD2, R539K). Here is the method:
as §1, §2

The target of a further assay is His521Ala rat TRPV2 (Rattus norvegicus, UniProt Q9WUD2, H521A). As to the method:
as §1, §2

The target of assay [1] is His521Ala/Arg539Lys rat TRPV2 (Rattus norvegicus, UniProt Q9WUD2, H521A/R539K). Here is the method:
as §1, §2

In another assay the target is His521Asn rat TRPV2 (Rattus norvegicus, UniProt Q9WUD2, H521N). Here is the method:
as §1, §2

A further assay deals with Thr522Ala rat TRPV2 (Rattus norvegicus, UniProt Q9WUD2, T522A). Here is the method:
as §1, §2

Another assay deals with Tyr525Ala rat TRPV2 (Rattus norvegicus, UniProt Q9WUD2, Y525A). The note with it: with either 2-APB or heat. Here is the method:
as §1, §2

Assay [2] addresses T1, wildtype rat TRPV2 (Rattus norvegicus, UniProt Q9WUD2).
T1 sequence (Q9WUD2 1-761): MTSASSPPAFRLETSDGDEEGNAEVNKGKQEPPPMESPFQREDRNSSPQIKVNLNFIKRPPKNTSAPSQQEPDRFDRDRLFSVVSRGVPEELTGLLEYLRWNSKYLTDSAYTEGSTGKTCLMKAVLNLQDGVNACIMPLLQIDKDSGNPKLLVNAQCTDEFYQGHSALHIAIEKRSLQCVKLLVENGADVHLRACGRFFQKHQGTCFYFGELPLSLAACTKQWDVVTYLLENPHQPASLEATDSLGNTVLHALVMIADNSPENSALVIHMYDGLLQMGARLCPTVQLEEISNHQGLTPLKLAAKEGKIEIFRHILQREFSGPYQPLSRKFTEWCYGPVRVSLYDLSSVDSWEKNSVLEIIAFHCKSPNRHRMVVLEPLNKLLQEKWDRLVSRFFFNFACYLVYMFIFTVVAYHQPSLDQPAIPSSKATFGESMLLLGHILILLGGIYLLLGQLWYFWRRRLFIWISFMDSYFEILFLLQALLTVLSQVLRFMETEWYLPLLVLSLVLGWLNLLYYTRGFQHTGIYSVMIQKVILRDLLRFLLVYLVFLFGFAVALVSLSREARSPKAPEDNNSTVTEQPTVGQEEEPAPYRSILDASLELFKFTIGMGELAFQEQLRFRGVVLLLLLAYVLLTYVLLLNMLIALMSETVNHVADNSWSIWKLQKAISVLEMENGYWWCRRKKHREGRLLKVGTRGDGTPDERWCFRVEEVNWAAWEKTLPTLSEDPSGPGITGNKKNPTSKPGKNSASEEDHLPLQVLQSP
Here is the method:
as §1, §2

Assay [3] has as its target T1, wildtype rat TRPV2. The experiment in a line: Whole-cell patch recordings, current density with 2-APB alone and 2-APB co-applied with CBD. The assay is classed as cell-based. Also on record: expressed in transfected cells; host or cells: HEK293T. The note with it: for current density: Mean ± SEM, N = 7. Here is the method: as §1, §2
The mark [4] stands for this setting: HEK293T, held at −60 mV, mean ± S.E.M.

Where “and” joins values, the source holds several entries; their conditions need not be identical. Equal entries are not always repeated.

Arg539Lys rat TRPV2, sequence (Q9WUD2 whole entry R539K): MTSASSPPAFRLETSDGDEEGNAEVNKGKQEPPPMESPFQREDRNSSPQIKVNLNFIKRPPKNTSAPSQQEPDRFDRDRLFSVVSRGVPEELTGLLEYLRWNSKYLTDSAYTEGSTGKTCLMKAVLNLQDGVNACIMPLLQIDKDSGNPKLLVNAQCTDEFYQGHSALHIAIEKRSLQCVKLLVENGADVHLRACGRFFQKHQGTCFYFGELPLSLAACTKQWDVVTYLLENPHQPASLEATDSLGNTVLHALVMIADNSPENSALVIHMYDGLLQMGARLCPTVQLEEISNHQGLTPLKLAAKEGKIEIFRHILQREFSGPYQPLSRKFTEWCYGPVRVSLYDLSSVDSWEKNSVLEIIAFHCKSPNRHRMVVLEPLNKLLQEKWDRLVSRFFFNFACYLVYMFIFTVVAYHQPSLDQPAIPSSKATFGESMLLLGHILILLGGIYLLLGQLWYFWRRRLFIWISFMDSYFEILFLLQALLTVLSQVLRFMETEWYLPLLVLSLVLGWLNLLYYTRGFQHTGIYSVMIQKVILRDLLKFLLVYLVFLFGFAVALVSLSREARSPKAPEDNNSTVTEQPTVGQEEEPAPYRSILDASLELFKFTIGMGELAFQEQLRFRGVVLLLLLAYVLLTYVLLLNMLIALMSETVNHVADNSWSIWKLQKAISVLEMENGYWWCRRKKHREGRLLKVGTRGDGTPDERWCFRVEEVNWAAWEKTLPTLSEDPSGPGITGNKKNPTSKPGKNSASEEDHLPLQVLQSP
His521Ala/Arg539Lys rat TRPV2, sequence (Q9WUD2 whole entry H521A/R539K): as the sequence (Q9WUD2 whole entry R539K) above, with H521A counted along it
His521Asn rat TRPV2, sequence (Q9WUD2 whole entry H521N): as the sequence (Q9WUD2 whole entry R539K) above, with H521N, K539R counted along it
His521Ala rat TRPV2, sequence (Q9WUD2 whole entry H521A): as the sequence (Q9WUD2 whole entry R539K) above, with H521A, K539R counted along it
Arg535Lys rat TRPV2, sequence (Q9WUD2 whole entry R535K): as the sequence (Q9WUD2 whole entry R539K) above, with R535K, K539R counted along it
Thr522Ala rat TRPV2, sequence (Q9WUD2 whole entry T522A): as the sequence (Q9WUD2 whole entry R539K) above, with T522A, K539R counted along it
Tyr525Ala rat TRPV2, sequence (Q9WUD2 whole entry Y525A): as the sequence (Q9WUD2 whole entry R539K) above, with Y525A, K539R counted along it

The Hill coefficient is a measure of the steepness of the concentration-response curve. In general, EC50 refers to the concentration giving half of the maximal effect. A lower EC50 goes with greater potency. `NCCOB(c1ccccc1)c1ccccc1` [2-APB, 2-aminoethoxydiphenyl borate]: the Hill coefficient is recorded as 3.3 ± 0.5 on Arg535Lys rat TRPV2; 5.6 ± 1.1 on Arg539Lys rat TRPV2 (Arg539Lys); 3.3 ± 0.3 at His521Ala rat TRPV2; 5.2 ± 0.6 in assay [1] (His521Ala/Arg539Lys); 4.3 ± 0.3 on His521Asn rat TRPV2; 3.0 ± 0.3 at Thr522Ala rat TRPV2. The Hill coefficient on wildtype rat TRPV2 [2] (wildtype) is 3.0 ± 0.2. Besides, the EC50 on Arg535Lys rat TRPV2 (setting [4]) amounted to 79 ± 11 µM; on Arg539Lys rat TRPV2 (Arg539Lys, HEK293T, held at −60 mV, mean ± S.E.M.), 683 ± 78 µM; on His521Ala rat TRPV2 (setting [4]), 991 ± 131 µM; in [1] (His521Ala/Arg539Lys, HEK293T, held at −60 mV, mean ± S.E.M.), 1750 ± 125 µM; on His521Asn rat TRPV2 (HEK293T, held at −60 mV), 742 ± 14 µM; at Thr522Ala rat TRPV2 (setting [4]), 232 ± 43 µM. At wildtype rat TRPV2 [2] (wildtype rat TRPV2, HEK293T, held at −60 mV, mean ± S.E.M.), this molecule showed an EC50 of 322 ± 27 µM. On Arg539Lys rat TRPV2 (rTRPV2 - R539K, 2-APB 50µM, single cell), the “Current (minus Leak)” value was 6.3 and 7.05 and 6.6. In addition, the “decrease in 2-APB sensitivity” value in assay [1] (double mutant compared to the wildtype TRPV2) is listed as “fivefold”. In addition, at Tyr525Ala rat TRPV2, the membrane currents evoked result is “could not evoke any membrane currents”. Moreover, the current density on wildtype rat TRPV2 [3] (2-APB alone 10 μM) stood at 0.98 ± 0.1 pA/pF; at wildtype rat TRPV2 [3] (2-APB alone 30 μM), 2.8 ± 0.3 pA/pF; on wildtype rat TRPV2 [3] (2-APB alone 100 μM), 24.9 ± 3.7 pA/pF. Moreover, the current at wildtype rat TRPV2 [3] (2-APB alone 10 µM, single cell) is 12.35 and 14.18 and 12.95 and 20 and 11.76 and 11.18.
